Data on 26 compounds can be found in PMC5607459, “Discovery of a Potent Inhibitor Class with High Selectivity toward Clostridial Collagenases” (Journal of the American Chemical Society, 2017).

What is called IC50 is the concentration needed to halve the response being measured. One may read the inhibition as the relative decrease from the control value, in per cent. As a reminder, the Kd is the free concentration of one partner at which half of the binding sites on the other are occupied at equilibrium, for simple one-to-one binding. For orientation: half-life means the time needed for the level to fall by half in the phase considered. Low readings indicate rapid decline, high ones slow decline. In general, Km refers to the substrate concentration at which the rate is half of its maximum.

Entries after “also recorded” stand apart in the source; their conditions may differ. Like-named read-outs stand apart in the source and are kept apart here. Non-standard residues stand in square brackets, D forms with d. Residues, ends and D or L forms follow the SMILES beside them. *: point of attachment. Dnp = O=[N+]([O-])c1ccc(*)c([N+](=O)[O-])c1; Mca = COc1ccc2c(CC(=O)*)cc(=O)oc2c1; Dap = NC[C@H](N)C(=O)O

For series [1], the target named is T1, ColH-PD (Hathewaya histolytica, UniProt Q46085). Description: biochemical.
T1 sequence (Q46085 331-721 limits assumed): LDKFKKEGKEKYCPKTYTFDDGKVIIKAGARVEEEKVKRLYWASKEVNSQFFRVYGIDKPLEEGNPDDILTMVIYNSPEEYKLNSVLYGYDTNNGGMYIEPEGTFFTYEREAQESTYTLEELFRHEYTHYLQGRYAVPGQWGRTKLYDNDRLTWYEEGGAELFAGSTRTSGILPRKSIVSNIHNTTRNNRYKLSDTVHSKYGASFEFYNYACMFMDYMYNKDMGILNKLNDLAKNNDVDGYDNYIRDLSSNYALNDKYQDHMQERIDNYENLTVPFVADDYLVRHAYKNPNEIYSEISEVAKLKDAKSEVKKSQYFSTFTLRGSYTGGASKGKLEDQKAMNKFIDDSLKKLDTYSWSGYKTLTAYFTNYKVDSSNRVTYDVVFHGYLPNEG
The target of another series is ColT-PD (Clostridium tetani, UniProt Q899Y1). Kind of series: biochemical. Also noted: species or system C. tetani. As to conditions: for remaining activity at 100 µM: read-out: residual activity of ColT.
Chain of ColT-PD (Q899Y1 340-731 limits assumed): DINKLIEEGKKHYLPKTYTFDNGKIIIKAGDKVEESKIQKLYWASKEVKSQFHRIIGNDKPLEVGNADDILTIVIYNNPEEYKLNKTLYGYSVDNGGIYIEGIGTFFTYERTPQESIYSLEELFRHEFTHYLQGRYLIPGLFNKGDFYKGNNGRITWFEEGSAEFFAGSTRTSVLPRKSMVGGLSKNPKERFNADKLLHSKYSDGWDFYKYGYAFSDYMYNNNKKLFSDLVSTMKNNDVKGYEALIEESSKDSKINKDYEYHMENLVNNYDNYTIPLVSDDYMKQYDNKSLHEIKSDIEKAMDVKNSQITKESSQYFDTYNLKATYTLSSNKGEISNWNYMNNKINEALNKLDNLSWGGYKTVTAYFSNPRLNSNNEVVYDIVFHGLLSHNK
The target in a further series is ColG-CU (Hathewaya histolytica, UniProt Q9X721). Description: biochemical. Set-up: species or system C. histolyticum. As to conditions: for remaining activity at 100 µM: read-out: residual activity of ColG.
Chain of ColG-CU (Q9X721 111-786): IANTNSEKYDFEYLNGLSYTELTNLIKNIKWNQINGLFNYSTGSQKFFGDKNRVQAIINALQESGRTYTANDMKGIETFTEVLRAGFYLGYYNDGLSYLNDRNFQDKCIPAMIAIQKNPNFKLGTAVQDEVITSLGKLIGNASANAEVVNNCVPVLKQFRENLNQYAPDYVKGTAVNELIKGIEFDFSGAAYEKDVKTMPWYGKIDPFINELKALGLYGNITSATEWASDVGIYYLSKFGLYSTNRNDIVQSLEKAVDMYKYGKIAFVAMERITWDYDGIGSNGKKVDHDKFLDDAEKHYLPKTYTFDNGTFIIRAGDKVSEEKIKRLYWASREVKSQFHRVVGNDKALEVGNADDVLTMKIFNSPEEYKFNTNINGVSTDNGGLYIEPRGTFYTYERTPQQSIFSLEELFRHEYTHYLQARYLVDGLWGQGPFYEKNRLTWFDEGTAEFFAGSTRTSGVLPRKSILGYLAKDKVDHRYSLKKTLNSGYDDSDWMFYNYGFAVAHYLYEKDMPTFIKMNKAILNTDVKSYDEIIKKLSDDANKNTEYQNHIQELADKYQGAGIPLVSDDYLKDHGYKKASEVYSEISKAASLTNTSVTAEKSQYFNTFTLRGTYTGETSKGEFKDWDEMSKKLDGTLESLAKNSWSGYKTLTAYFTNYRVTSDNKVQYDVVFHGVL
The target of another series is ColQ1-CU (Bacillus cereus, UniProt B9J3S4). Description: biochemical. Set-up: species or system Bacillus cereus strain Q1. As to conditions: for remaining activity at 100 µM: read-out: residual activity of ColQ1.
Chain of ColQ1-CU (B9J3S4 94-765 limits assumed): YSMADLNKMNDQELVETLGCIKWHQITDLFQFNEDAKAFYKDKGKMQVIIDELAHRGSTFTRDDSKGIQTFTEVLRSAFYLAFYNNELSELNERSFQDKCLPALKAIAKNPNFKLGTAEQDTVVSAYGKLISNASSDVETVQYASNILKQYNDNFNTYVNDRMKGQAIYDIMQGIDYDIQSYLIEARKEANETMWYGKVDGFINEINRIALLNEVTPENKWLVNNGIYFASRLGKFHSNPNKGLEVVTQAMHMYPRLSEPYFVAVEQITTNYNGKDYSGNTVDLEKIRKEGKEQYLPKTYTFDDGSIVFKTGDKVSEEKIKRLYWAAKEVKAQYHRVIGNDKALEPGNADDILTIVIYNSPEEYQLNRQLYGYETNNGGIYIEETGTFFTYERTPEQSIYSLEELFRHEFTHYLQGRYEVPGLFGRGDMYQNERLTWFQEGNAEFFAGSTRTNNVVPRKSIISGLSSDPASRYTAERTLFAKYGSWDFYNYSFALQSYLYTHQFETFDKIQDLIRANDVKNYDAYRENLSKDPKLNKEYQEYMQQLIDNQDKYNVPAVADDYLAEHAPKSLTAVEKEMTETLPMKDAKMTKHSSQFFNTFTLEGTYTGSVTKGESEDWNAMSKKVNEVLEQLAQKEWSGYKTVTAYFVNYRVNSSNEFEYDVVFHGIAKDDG
Series [2] deals with T2, catalytic domain of MMP-2 (Homo sapiens, UniProt P08253).
T2 construct: The catalytic domains of MMP-1, -2, -3, -7, -8 and -14; purchased AnaSpec (Fremont, CA, USA)
T2 sequence (P08253 110-465 limits assumed): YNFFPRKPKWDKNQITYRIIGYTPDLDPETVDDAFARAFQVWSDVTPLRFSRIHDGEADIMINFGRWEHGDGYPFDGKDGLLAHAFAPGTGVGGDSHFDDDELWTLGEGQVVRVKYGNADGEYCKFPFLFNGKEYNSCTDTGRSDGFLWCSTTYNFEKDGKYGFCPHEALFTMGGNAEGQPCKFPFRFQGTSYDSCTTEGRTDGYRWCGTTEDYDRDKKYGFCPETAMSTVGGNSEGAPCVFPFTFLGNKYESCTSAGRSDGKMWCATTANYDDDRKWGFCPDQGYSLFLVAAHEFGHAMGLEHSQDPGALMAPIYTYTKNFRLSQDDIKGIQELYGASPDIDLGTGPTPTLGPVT
Description: Human MMP inhibition assay, MMP-2. The class given is biochemical. As to conditions: 100 μM compound.

The test system of series [3] is MMP-1, -2, -3, -7, -8, and -14. Description: Human MMP inhibition assay, statements on the whole panel. The class given is biochemical. Particulars: for inhibition of the tested MMPs: tested at 100 µM.
In series [4] the target is T1, ColH-PD.
For series [5], the target named is T1, ColH-PD. Description: biochemical. The class given is binding, Clostridium histolyticum.
Another series in a line: physchem. Particulars: buffer, pH 7.5.
Another series concerns LasB. The format is biochemical, P. aeruginosa.
Series [6] deals with HEP G2 cells. Particulars: human.
The conditions of series [7]: 10 mM Hepes pH 7.4 (10% methanol) at 22.5°C, experimental time frame.
Series [8] has as its target T1, ColH-PD. This is another data set of the same source.
The target in series [9] is catalytic domain of MMP-7 (Homo sapiens, UniProt P09237). Kind of series: biochemical.
Chain of catalytic domain of MMP-7 (P09237 95-267): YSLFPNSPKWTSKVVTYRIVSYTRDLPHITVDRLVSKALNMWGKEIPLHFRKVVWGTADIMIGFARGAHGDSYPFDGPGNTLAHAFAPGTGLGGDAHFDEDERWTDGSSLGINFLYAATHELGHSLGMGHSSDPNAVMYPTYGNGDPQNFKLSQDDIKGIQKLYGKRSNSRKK
The subject of series [10] is HEP G2 cells. Kind of series: Cytotoxicity assay. As to conditions: 48 h.
Series [11] concerns the target amine-coupled peptidase domain of ColH (ColH-PD) (Hathewaya histolytica, UniProt Q46085).

Chain of amine-coupled peptidase domain of ColH (ColH-PD) (Q46085 331-721 limits assumed): as the sequence (Q46085 331-721 limits assumed) above

With `NC(=O)SCC(=O)Nc1ccccc1` [Compound 1], at ColH-PD [1], the IC50 was 25000 ± 6000 nM.
Regarding `Cc1ccc(NC(=O)CSC(N)=O)cc1C` [Compound 2], 1900 ± 300 nM corresponded to half-maximal inhibition against ColH-PD [1] (IC50). Moreover, on ColH-PD [1] (read-out: inhibition of ColH-PD), the inhibition at 40 µM worked out at 82 ± 3%.
For `CC(=O)c1ccc(NC(=O)CSC(N)=O)cc1` [Compound 3], the remaining activity at 100 µM on ColT-PD was at most 5%; at ColG-CU it was at most 5%; on ColQ1-CU, at most 5%; at ColH-PD [1] (read-out: residual activity of ColH-PD), below 10%. Moreover, at 100 µM the inhibition in series [2] was 25%. Also, the “selectivity for ColH over MMPs” value in series [3] is “more than 1000 fold”. The “inhibition of the tested MMPs” value in series [3] is recorded as “no or negligible inhibition”.
Take `COC(=O)c1ccc(NC(=O)CSC(N)=O)cc1` [Compound 4]: on ColH-PD [1], inhibition was half-maximal at 44 ± 7 nM (IC50).
Still for that read-out and setting: with `COc1ccc(NC(=O)CSC(N)=O)cc1` [Compound 5] the figure was 71 ± 9 nM.
`Cc1ccc(NC(=O)CSC(N)=O)cc1` [Compound 6]: the “decreased IC50 compared to compound 2” value at ColH-PD [4] is listed as 16 fold. Besides, the IC50 against ColH-PD [1] amounted to 120 ± 10 nM.
Turning to `NC(=O)SCC(=O)Nc1ccc(Cl)cc1` [Compound 7], the remaining activity at 100 µM at ColT-PD was at most 5%. Further, the remaining activity at 100 µM at ColG-CU was at most 5%. Besides, the remaining activity at 100 µM at ColQ1-CU was at most 5%. Further, in [3], the “selectivity for ColH over MMPs” value was “more than 1000 fold” and the “inhibition of the tested MMPs” value is “no or negligible inhibition”. Also, on ColH-PD [5], the dissociation constant (Kd) turned out to be 309 ± 45 nM, the “N (stoichiometry)” value is on record as 0.54 ± 0.05, the ΔG entry was “–8.9 ± 0.1 kcal mol^–1” and the ΔH entry is “–12.7 ± 1.2 kcal mol^–1”. For the same compound, the “–TΔS” value on ColH-PD [5] is on record as 3.8 ± 1.3 kcal mol^–1. For the same compound, the “decrease in IC50 compared to meta-chloro-substituted counterpart 9” value on ColH-PD [4] is listed as 100 fold. In “physchem”, this compound registered a half-life of 26.8 ± 1.4 min. This compound also registered an IC50 at ColH-PD [1] of 190 ± 20 nM.
Turning to `CCOc1ccc(NC(=O)CSC(N)=O)cc1` [Compound 8], on ColH-PD [1], inhibition was half-maximal at 190 ± 30 nM (IC50).
Same read-out and setting: the result for `NC(=O)SCC(=O)Nc1cccc(Cl)c1` [Compound 9] reads 19000 ± 3000 nM; that for `NC(=O)SCC(=O)Nc1cccc(F)c1` [Compound 10], 23000 ± 3000 nM.
In “physchem”, `NC(=O)SCC(=O)Nc1ccccc1Cl` [Compound 12] had a half-life of 20.6 ± 0.9 min. For the same compound, the IC50 against ColH-PD [1] came to 31000 ± 7000 nM.
In the case of `CC(=O)c1ccc(NC(=O)CS)cc1` [Compound 13], the “selectivity against MMPs” value in series [3] is given as “similarly high selectivity against MMPs”. Further, the “lower activity toward LasB compared to ColH” value in the series with LasB is given as “more than 1000 fold”. For the same compound, in the series with HEP G2 cells [6], the “reduction of viability (%)” value is 17 ± 12%.
On to `O=C(CS)Nc1ccc(Cl)cc1` [Compound 14], for which the “selectivity against MMPs” value in series [3] is “similarly high selectivity against MMPs”. At ColH-PD [5], the Kd was 360 ± 38 nM, the “N (stoichiometry)” value is recorded as 0.48 ± 0.03, the ΔG entry was “–8.8 ± 0.1 kcal mol^–1” and the ΔH entry was “–15.4 ± 0.3 kcal mol^–1”. Moreover, at ColH-PD [5], the “–TΔS” value was 6.6 ± 0.4 kcal mol^–1. In addition, in the series with HEP G2 cells [6], the “reduction of viability (%)” value is recorded as 28 ± 12%. This compound registered an IC50 at ColH-PD [1] of 210 ± 10 nM.
In turn, `O=C(CS)Nc1ccccc1Cl` [Compound 15] had a 50% inhibitory concentration (IC50) at ColH-PD [1] of 40000 ± 9000 nM.
For the compound `NC(=O)CCC(=O)Nc1ccccc1` [Compound 16], the “inhibitory activity toward ColH-PD” value at ColH-PD [4] is “devoid of any activity; also recorded: no inhibition”.
As to `CCOc1ccc(NC(=O)CSC(=S)N(CC)CC)cc1` [Compound 17], the “Inhibition at 100 μM (%)” value at ColH-PD [4] is “no inhibition”.
On the same count and under the same terms, the result for `CCN(CC)C(=S)SCC(=O)Nc1ccc(Br)cc1` [Compound 18] reads “no inhibition”; that for `CCN(CC)C(=S)SCC(=O)Nc1ccc(C(C)C)cc1` [Compound 19], “no inhibition”.
The same measure, in the same setting: the result for `CCN(CC)C(=S)SCC(=O)Nc1ccc(F)cc1` [Compound 20] reads “no inhibition”.
Consider `CCN(CC)C(=S)SCC(=O)Nc1ccc(C(C)=O)cc1` [Compound 21], for which the “hydrolysis to the corresponding free thiol 13” value in [7] is given as “no hydrolysis”. Moreover, the inhibition at 100 µM at ColH-PD [1] (read-out: Inhibition at 100 μM (%)) came out at 12 ± 3%.
For `COc1ccc2c(CC(=O)N[C@@H](C)C(=O)NCC(=O)N3CCC[C@H]3C(=O)N3CCC[C@H]3C(=O)NCC(=O)N3CCC[C@H]3C(=O)N[C@@H](CNc3ccc([N+](=O)[O-])cc3[N+](=O)[O-])C(=O)NCC(=O)N[C@@H](CCCNC(=N)N)C(N)=O)cc(=O)oc2c1` [Mca-Ala-Gly-Pro-Pro-Gly-Pro-Dpa-Gly-Arg-NH2] (Mca-AGPPGP[Dap](Dnp)GR-NH2), at ColH-PD [8], the Km came to 62 ± 8 µM.
As to `CNC(=O)[C@H](Cc1ccccc1)NC(=O)[C@H](CC(C)C)[C@H](CSc1cccs1)C(=O)NO` [batimastat, reference compound], on ColT-PD, the “inhibition of ColT-PD” value is on record as “inhibited”. Further, at ColG-CU, the “inhibition of ColG-CU” value is on record as “inhibited”. For the same compound, on ColQ1-CU, the “inhibition of ColQ1-CU” value is “inhibited”. Also, the IC50 in [3] (MMP-1, -2, -3, -7, -8, -14, read-out: IC50 values for all of these MMPs) was below 10 nM; in [9], 7 ± 0.2 nM. Moreover, on ColH-PD [4], the “inhibition of ColH-PD” value is on record as “inhibited”. Moreover, the “reduction of viability (%)” value in the series with HEP G2 cells [6] (48 h, 100 μM) was found to be 13 ± 7%.
On to `COc1cccc2c1C(=O)c1c(O)c3c(c(O)c1C2=O)C[C@@](O)(C(=O)CO)C[C@@H]3O[C@H]1C[C@H](N)[C@H](O)[C@H](C)O1` [doxorubicin], for which the “reduction of viability (%)” value in the series on HEP G2 cells [10] (1 μM) is 50 ± 5%.
As for `CO[C@H]1/C=C/O[C@@]2(C)Oc3c(C)c(O)c4c(O)c(c(/C=N/N5CCN(C)CC5)c(O)c4c3C2=O)NC(=O)/C(C)=C\C=C\[C@H](C)[C@H](O)[C@@H](C)[C@@H](O)[C@@H](C)[C@H](OC(C)=O)[C@@H]1C` [rifampicin], in the series on HEP G2 cells [10] (100 μM), the “reduction of viability (%)” value is recorded as 29 ± 5%.
With “N-(3-[2-furyl]acryloyl)-L-leucyl-glycyl-L-prolyl-L-alanine [FALGPA]”, the “MW-normalized SPR response” value in [11] is listed as 35 μ-refractive index units.
For the compound “isoamylphosphonyl-Gly-Pro-Ala [reference compound]”, the “inhibition of ColH-PD” value against ColH-PD [4] (40 µM) was determined as 81 ± 1%.
